Test results taken from patent US8933074B2, “1,2-disubstituted heterocyclic compounds” (FORUM Pharmaceuticals Inc., priority 2008, dated 2015).

Biological target: Human PDE10A1 (Homo sapiens, UniProt Q9Y233)
Assay: hPDE10A1 enzyme inhibition
Type: biochemical
Conditions: [3H]-cAMP substrate, 20 minutes at 37° C.; read-out: hPDE10A1 IC50 Band
Method: 50 μl samples of serially diluted Human PDE10A1 enzyme were incubated with 50 μl of [^3H]-cAMP for 20 minutes (at 37° C.). Reactions were carried out in Greiner 96 deep well 1 ml master-block. The enzyme was diluted in 20 mM Tris HCl pH7.4 and [^3H]-cAMP was diluted in 10 mM MgCl2, 40 mM Tris.HCl pH 7.4. The reaction was terminated by denaturing the PDE enzyme (at 70° C.) after which [^3H]-5′-AMP was converted to [^3H]-adenosine by adding 25 μl snake venom nucleotidase and incubating for 10 minutes (at 37° C.). Adenosine, being neutral, was separated from charged cAMP or AMP by the addition of 200 μl Dowex resin. Samples were shaken for 20 minutes then centrifuged for 3 minutes at 2,500 r.p.m. 50 μl of supernatant was removed and added to 200 μl of MicroScint-20 in white plates (Greiner 96-well Optiplate) and shaken for 30 minutes before reading on Perkin Elmer TopCount Scintillation Counter.
To check inhibition profile 11 μl of serially diluted inhibitor was added to 50 μl of [^3H]-cAMP and 50 ul of diluted Human PDE10A1 and assay was carried out as in the enzyme activity assay. Data was analysed using Prism software (GraphPad Inc).

Human PDE10A1, sequence (Q9Y233 1-779 isoform Q9Y233-1): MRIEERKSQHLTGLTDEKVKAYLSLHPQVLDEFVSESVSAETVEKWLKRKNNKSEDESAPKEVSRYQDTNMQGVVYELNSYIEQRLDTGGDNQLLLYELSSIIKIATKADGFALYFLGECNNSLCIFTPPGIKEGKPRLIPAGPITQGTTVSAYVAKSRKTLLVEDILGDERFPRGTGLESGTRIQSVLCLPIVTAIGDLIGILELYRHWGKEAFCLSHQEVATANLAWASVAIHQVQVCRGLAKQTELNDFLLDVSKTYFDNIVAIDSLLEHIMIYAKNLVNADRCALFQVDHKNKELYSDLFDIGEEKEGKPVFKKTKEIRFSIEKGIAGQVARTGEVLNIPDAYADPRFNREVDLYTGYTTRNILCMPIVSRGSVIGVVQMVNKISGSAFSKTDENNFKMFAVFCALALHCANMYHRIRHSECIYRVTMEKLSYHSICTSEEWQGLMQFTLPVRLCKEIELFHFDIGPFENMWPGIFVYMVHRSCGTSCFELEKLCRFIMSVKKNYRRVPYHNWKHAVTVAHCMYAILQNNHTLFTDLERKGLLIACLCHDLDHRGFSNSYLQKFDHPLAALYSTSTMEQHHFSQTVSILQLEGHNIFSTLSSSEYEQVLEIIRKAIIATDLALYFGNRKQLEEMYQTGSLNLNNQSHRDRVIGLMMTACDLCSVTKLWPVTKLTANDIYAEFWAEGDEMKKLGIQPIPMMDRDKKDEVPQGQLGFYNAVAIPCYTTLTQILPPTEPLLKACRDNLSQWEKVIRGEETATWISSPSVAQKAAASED

`COc1ccc(C2=C(c3ccc(OCc4ccc5ccccc5n4)cc3)C(=O)OC2(C)C)cc1` [Example 33, 4-(4-methoxyphenyl)-5,5-dimethyl-3-(4-(quinolin-2-ylmethoxy)phenyl)furan-2(5H)-one] and `CC(C)Oc1ccc(C2=C(c3ccc(OCc4ccc5ccccc5n4)cc3)C(=O)C(C)(C)O2)cc1` [Example 158, 5-(4-isopropoxyphenyl)-2,2-dimethyl-4-(4-(quinolin-2-ylmethoxy)phenyl)furan-3(2H)-one] cannot be ordered by IC50: ≤ 50 nM for the first, > 50 nM for the second.

`CC1(C)OC(c2ccc(OC(F)F)cc2)=C(c2ccc(OCc3ccc4ccccc4n3)cc2)C1=O` [Example 159, 5-(4-(difluoromethoxy)phenyl)-2,2-dimethyl-4-(4-(quinolin-2-ylmethoxy)phenyl)furan-3(2H)-one] and `CC1(C)OC(c2ccc(-n3cnnn3)cc2)=C(c2ccc(OCc3ccc4ccccc4n3)cc2)C1=O` [Example 170, 5-(4-(1H-tetrazol-1-yl)phenyl)-2,2-dimethyl-4-(4-(quinolin-2-ylmethoxy)phenyl)furan-3(2H)-one] cannot be ordered by IC50: ≤ 50 nM for the first, ≤ 50 nM for the second.

`CC1(C)OC(c2ccc3nsnc3c2)=C(c2ccc(OCc3ccc4ccccc4n3)cc2)C1=O` [Example 167, 5-(Benzo[c][1,2,5]thiadiazol-5-yl)-2,2-dimethyl-4-(4-(quinolin-2-ylmethoxy)phenyl)furan-3(2H)-one] and `COc1ccc(C2=C(c3ccc(OCc4ccc5ccccc5n4)cc3)C(=O)C(C)(C)O2)cc1Cl` [Example 135, 5-(3-Chloro-4-methoxyphenyl)-2,2-dimethyl-4-(4-(quinolin-2-ylmethoxy)phenyl) furan-3(2H)-one] cannot be ordered by IC50: ≤ 50 nM for the first, ≤ 50 nM for the second.

`CC1(C)OC(c2ccc(N(S(C)(=O)=O)S(C)(=O)=O)cc2)=C(c2ccc(OCc3ccc4ccccc4n3)cc2)C1=O` [Example 817, N-(4-(5,5-dimethyl-4-oxo-3-(4-(quinolin-2-ylmethoxy)phenyl)-4,5-dihydrofuran-2-yl)phenyl)-N-(methylsulfonyl)methanesulfonamide] and `CC1(C)OC(c2ccncc2)=C(c2ccc(OCc3ccc4cc(F)ccc4n3)cc2)C1=O` [Example 810, 4-(4-((6-Fluoroquinolin-2-yl)methoxy)phenyl)-2,2-dimethyl-5-(pyridin-4-yl) furan-3(2H)-one] cannot be ordered by IC50: ≤ 50 nM for the first, ≤ 50 nM for the second.

For `CN1C(=O)C(c2ccncc2)=C(c2ccc(OCc3ccc4ccccc4n3)cc2)C1=O` [Example 11, 1-methyl-3-(pyridin-4-yl)-4-(4-(quinolin-2-ylmethoxy)phenyl)-1H-pyrrole-2,5-dione], the IC50 was > 50 nM.

System: rat
Assay: not given
Conditions: rats; cited from earlier work

For `COc1ccc(Cc2nccc3cc(OC)c(OC)cc23)cc1OC` [papaverine], the apomorphine induced stereotypes is given as “reduces”.

In the case of `COc1ccc(Cc2nccc3cc(OC)c(OC)cc23)cc1OC` [papaverine], the haloperidol induced catalepsy is listed as “increases”.

For `COc1ccc(Cc2nccc3cc(OC)c(OC)cc23)cc1OC` [papaverine], the “rat brain dopamine levels” value is listed as “reduces”.
